Series [1] has as its system HepG2/C3A liver cells. As to the kind of experiment: Albumin synthesis by ELISA in cell culture medium of the body cube. The conditions noted are these: drugs added to the cube; compared to control without drug. Type of series: cell-based, human. (In an ELISA, binding on a coated surface is turned into a signal by an enzyme label.)
The test system of series [2] is HepG2/C3A liver cells. As to the kind of experiment: Cell viability stain of liver cells after 72 h co-culture in the body cube. Type of series: cell-based, human. The conditions noted are these: 72 h four-tissue co-culture in body cube, 80 μL recirculating medium; compared to control without drug.
The test system of series [3] is HepG2/C3A liver cells. The class given is cell-based. The method, then:
After 24 h, the cell-loaded 3D scaffolds were aseptically transferred into the tissue chambers of the appropriate tissues chip. The chips were then placed on top of each other, so that the back of one tissue chamber closed the opening of the tissue chip below it. The tissue chip stack was then inserted into the holder. The two reservoirs of the cube were filled with 32.5 μL of EMEM (containing a volume fraction of 10% FBS) each, and the device was placed onto a rocker platform that tilted back and forth at an angle of 45°. The platform changed its tilt from 45° to −45° every 60 s continuously for 72 h. Culture medium was collected and replaced with fresh medium after 1 h, 16 h, 24 h, 40 h, 48 h, and 64 h. The total amount of blood surrogate (i.e. the amount of cell culture medium that we consider blood surrogate) inside the system consisted of 2×32.5 μL (medium in the reservoirs), plus 15 μL (medium inside the microfluidic channels that deliver medium to the tissue culture chambers).
To estimate cell death during co-culture, we measured AST concentrations in the cell culture medium recovered from the devices after 1 h, 16 h, 40 h and 64 h of co-culture. The AST activity was measured with an assay kit. Briefly, standard samples and medium samples were added to the 96 well plate. We then added 100 μL of working solution to each well and mixed both solutions by gently tapping the plate. The plate was then incubated inside a plate reader in the dark, at 37° C. […] We then selected the initial absorbance value inside the linear range and calculated the AST concentrations using the protocol given in the kit. The results are expressed as μg per million cells produced in relation to a 1 h baseline measurement.
Similar to the baseline experiments described above, we recovered cell cultures after 72 h of co-culture from the device.

The subject of series [4] is HepG2/C3A liver cells. As to the kind of experiment: Urea production in collected cell culture medium of the body cube. Type of series: cell-based, human.

“Also recorded” adds a separate entry of the source.

Regarding `Cc1c(C)c2c(c(C)c1O)CCC(C)(COc1ccc(CC3SC(=O)NC3=O)cc1)O2` (stereo not shown) [troglitazone], in the series with HepG2/C3A liver cells [1], the albumin production result is given as “not albumin production was decreased”. Moreover, the “cell viability in the liver chamber (viability stain, fluorescence images)” value in the series on HepG2/C3A liver cells [2] is reported as “significant liver damage; also recorded: expected cell death; also recorded: significantly lowered cell viability”. In the series with HepG2/C3A liver cells [3] (after 40 h of exposure), the “cytosolic enzymes released vs cultures not exposed to drugs” value was “significantly larger amounts”. In the series with HepG2/C3A liver cells [3] (after 48 h), the “cytosolic enzyme concentration in the medium vs control cultures” value is on record as “similar”. Besides, the “AST in the cell culture medium” value in the series with HepG2/C3A liver cells [3] (body cube co-culture, compared to control without drug) is “significantly higher; also recorded: temporary increase of AST”. Also, the “metabolic activity of the tissues” value with HepG2/C3A liver cells [4] (body cube co-culture challenged with drug) was “decrease in metabolic activity”. Further, the urea production entry in the series with HepG2/C3A liver cells [4] (drugs added to the cube, compared to control without drug) is recorded as “decreased”.

These data come from US11905504B2, “Body cube and process for culturing tissue” (Government of the United States of America, as represented …, priority 2020, dated 2024).
